# In ChEMBL document CHEMBL4308841, “Synthesis, in vitro antiproliferative activity, and kinase inhibitory effects of pyrazole-containing diarylureas and diarylamides” (Eur J Med Chem, 2018):
# pIC50: −log10 of the molar value.
# How the values were obtained:
# [1] = tested on: HT-29; assay: Growth inhibition of human HT-29 cells incubated for 48 hrs by sulforhodamine B assay; format: functional, cell-based; settings: HT-29, 48 h
# [2] = tested on: HOP-62; assay: Growth inhibition of human HOP62 cells assessed as cell growth at 0.01 uM incubated for 48 hrs by sulforhodamine B assay relative to control; format: functional; settings: HOP-62, 48 h, read-out: Activity
# [3] = tested on: OVCAR-8; assay: Growth inhibition of human OVCAR8 cells assessed as cell growth at 0.01 uM incubated for 48 hrs by sulforhodamine B assay relative to control; format: functional; settings: OVCAR-8, 48 h, read-out: Activity
# [4] = tested on: OVCAR-3; assay: Growth inhibition of human OVCAR3 cells incubated for 48 hrs by sulforhodamine B assay; format: functional, cell-based; settings: OVCAR-3, 48 h
# [5] = tested on: SF-295; assay: Growth inhibition of human SF295 cells assessed as cell growth at 0.1 uM incubated for 48 hrs by sulforhodamine B assay relative to control; format: functional; settings: SF-295, 48 h, read-out: Activity
# [6] = tested on: M14; assay: Growth inhibition of human M14 cells incubated for 48 hrs by sulforhodamine B assay; format: functional, cell-based; settings: M14, 48 h
# [7] = tested on: K562; assay: Growth inhibition of human K562 cells assessed as cell growth at 1 uM incubated for 48 hrs by sulforhodamine B assay relative to control; format: functional; settings: K562, 48 h, read-out: Activity
# [8] = tested on: HL-60(TB); assay: Growth inhibition of human HL-60(TB) cells assessed as cell growth at 100 uM incubated for 48 hrs by sulforhodamine B assay relative to control; format: functional; settings: HL-60, 48 h, read-out: Activity
# [9] = tested on: MDA-MB-435; assay: Growth inhibition of human MDA-MB-435 cells assessed as cell growth at 0.01 uM incubated for 48 hrs by sulforhodamine B assay relative to control; format: functional; settings: MDA-MB-435, 48 h, read-out: Activity
# [10] = tested on: HCC 2998; assay: Growth inhibition of human HCC2998 cells assessed as cell growth at 0.1 uM incubated for 48 hrs by sulforhodamine B assay relative to control; format: functional; settings: HCC 2998, 48 h, read-out: Activity
# [11] = tested on: A498; assay: Growth inhibition of human A498 cells incubated for 48 hrs by sulforhodamine B assay; format: functional, cell-based; settings: A498, 48 h
# [12] = tested on: MOLT-4; assay: Growth inhibition of human MOLT4 cells assessed as cell growth at 0.1 uM incubated for 48 hrs by sulforhodamine B assay relative to control; format: functional; settings: MOLT-4, 48 h, read-out: Activity
# [13] = tested on: MOLT-4; assay: Growth inhibition of human MOLT4 cells assessed as cell growth at 100 uM incubated for 48 hrs by sulforhodamine B assay relative to control; format: functional; settings: MOLT-4, 48 h, read-out: Activity
# [14] = tested on: HL-60(TB); assay: Growth inhibition of human HL-60(TB) cells assessed as cell growth at 0.01 uM incubated for 48 hrs by sulforhodamine B assay relative to control; format: functional; settings: HL-60, 48 h, read-out: Activity
# [15] = tested on: NCI-H522; assay: Growth inhibition of human NCI-H522 cells incubated for 48 hrs by sulforhodamine B assay; format: functional, cell-based; settings: NCI-H522, 48 h
# [16] = tested on: K562; assay: Growth inhibition of human K562 cells assessed as cell growth at 0.1 uM incubated for 48 hrs by sulforhodamine B assay relative to control; format: functional; settings: K562, 48 h, read-out: Activity
# [17] = tested on: SK-MEL-2; assay: Growth inhibition of human SK-MEL-2 cells incubated for 48 hrs by sulforhodamine B assay; format: functional, cell-based; settings: SK-MEL-2, 48 h
# [18] = tested on: MDA-MB-468; assay: Growth inhibition of human MDA-MB-468 cells assessed as cell growth at 0.1 uM incubated for 48 hrs by sulforhodamine B assay relative to control; format: functional; settings: MDA-MB-468, 48 h, read-out: Activity
# [19] = tested on: MDA-MB-468; assay: Growth inhibition of human MDA-MB-468 cells assessed as cell growth at 100 uM incubated for 48 hrs by sulforhodamine B assay relative to control; format: functional; settings: MDA-MB-468, 48 h, read-out: Activity
# [20] = tested on: HCC 2998; assay: Growth inhibition of human HCC2998 cells assessed as cell growth at 100 uM incubated for 48 hrs by sulforhodamine B assay relative to control; format: functional; settings: HCC 2998, 48 h, read-out: Activity
# [21] = tested on: HOP-62; assay: Growth inhibition of human HOP62 cells assessed as cell growth at 1 uM incubated for 48 hrs by sulforhodamine B assay relative to control; format: functional; settings: HOP-62, 48 h, read-out: Activity
# [22] = tested on: HCT-15; assay: Growth inhibition of human HCT15 cells assessed as cell growth at 0.1 uM incubated for 48 hrs by sulforhodamine B assay relative to control; format: functional; settings: HCT-15, 48 h, read-out: Activity
# [23] = tested on: KM12; assay: Growth inhibition of human KM12 cells assessed as cell growth at 1 uM incubated for 48 hrs by sulforhodamine B assay relative to control; format: functional; settings: KM12, 48 h, read-out: Activity
# [24] = tested on: HT-29; assay: Growth inhibition of human HT-29 cells assessed as cell growth at 100 uM incubated for 48 hrs by sulforhodamine B assay relative to control; format: functional; settings: HT-29, 48 h, read-out: Activity
# [25] = tested on: MDA-MB-435; assay: Growth inhibition of human MDA-MB-435 cells assessed as cell growth at 100 uM incubated for 48 hrs by sulforhodamine B assay relative to control; format: functional; settings: MDA-MB-435, 48 h, read-out: Activity
# [26] = tested on: UO-31; assay: Growth inhibition of human UO31 cells assessed as cell growth at 1 uM incubated for 48 hrs by sulforhodamine B assay relative to control; format: functional; settings: UO-31, 48 h, read-out: Activity
# [27] = tested on: SR; assay: Growth inhibition of human SR cells assessed as cell growth at 0.1 uM incubated for 48 hrs by sulforhodamine B assay relative to control; format: functional; settings: read-out: Activity
# [28] = tested on: NCI-H522; assay: Growth inhibition of human NCI-H522 cells assessed as cell growth at 10 uM incubated for 48 hrs by sulforhodamine B assay relative to control; format: functional; settings: NCI-H522, 48 h, read-out: Activity
# [29] = tested on: K562; assay: Growth inhibition of human K562 cells assessed as cell growth at 100 uM incubated for 48 hrs by sulforhodamine B assay relative to control; format: functional; settings: K562, 48 h, read-out: Activity
# [30] = tested on: DU-145; assay: Growth inhibition of human DU145 cells assessed as cell growth at 1 uM incubated for 48 hrs by sulforhodamine B assay relative to control; format: functional; settings: DU-145, 48 h, read-out: Activity
# [31] = read-out: LC50 (the source's name)
# [32] = read-out: pLC50 (the source's name) (converted)
structure (smiles),measurement,setting,value
COc1cc(Cl)cc(-c2nn(-c3cccc(NC(=O)Nc4ccc(Cl)c(C(F)(F)F)c4)c3)cc2-c2ccncc2)c1,GI50,[1]; read-out: GI50,1.14 µM
same,CC50,[1]; [31],3.52 µM
same,TGI,[1]; read-out: TGI,43.8 µM
same,GI50,[1]; read-out: pGI50 (converted),1.15 µM
same,CC50,[1]; [32],38 µM
same,TGI,[1]; read-out: pTGI (converted),4.37 µM
same,growth at 0.01 µM,[2],100%
same,growth at 0.01 µM,[3],98%
same,pIC50,[4],6.35
same,GI50,[4]; read-out: GI50,0.451 µM
same,CC50,[4]; [31],54.6 µM
same,TGI,[4]; read-out: TGI,25.5 µM
same,GI50,[4]; read-out: pGI50 (converted),4.47 µM
same,CC50,[4]; [32],55 µM
same,TGI,[4]; read-out: pTGI (converted),28.8 µM
same,growth at 0.1 µM,[5],98%
same,GI50,[6]; read-out: GI50,1.33 µM
same,CC50,[6]; [31],0.05 µM
same,TGI,[6]; read-out: TGI,34.7 µM
same,GI50,[6]; read-out: pGI50 (converted),1.32 µM
same,CC50,[6]; [32],9.12 µM
same,TGI,[6]; read-out: pTGI (converted),8.51 µM
same,growth at 1 µM,[7],35%
same,growth at 100 µM,[8],-22%
same,growth at 0.01 µM,[9],95%
same,growth at 0.1 µM,[10],94%
same,GI50,[11]; read-out: GI50,2.58 µM
same,CC50,[11]; [31],57.6 µM
same,TGI,[11]; read-out: TGI,14.4 µM
same,GI50,[11]; read-out: pGI50 (converted),2.69 µM
same,CC50,[11]; [32],57.5 µM
same,TGI,[11]; read-out: pTGI (converted),4.27 µM
same,growth at 0.1 µM,[12],57%
same,growth at 100 µM,[13],-28%
same,growth at 0.01 µM,[14],96%
same,GI50,[15]; read-out: GI50,0.418 µM
same,CC50,[15]; [31],9.74 µM
same,TGI,[15]; read-out: TGI,25 µM
same,GI50,[15]; read-out: pGI50 (converted),0.417 µM
same,CC50,[15]; [32],9.77 µM
same,TGI,[15]; read-out: pTGI (converted),2.51 µM
same,growth at 0.1 µM,[16],91%
same,GI50,[17]; read-out: GI50,1.79 µM
same,CC50,[17]; [31],9.59 µM
same,TGI,[17]; read-out: TGI,42.1 µM
same,GI50,[17]; read-out: pGI50 (converted),1.78 µM
same,CC50,[17]; [32],10 µM
same,TGI,[17]; read-out: pTGI (converted),4.37 µM
same,growth at 0.1 µM,[18],91%
same,growth at 100 µM,[19],-27%
same,growth at 100 µM,[20],-75%
same,growth at 1 µM,[21],84%
same,growth at 0.1 µM,[22],54%
same,growth at 1 µM,[23],33%
same,growth at 100 µM,[24],-84%
same,growth at 100 µM,[25],-40%
same,growth at 1 µM,[26],64%
same,growth at 0.1 µM,[27],92%
same,growth at 10 µM,[28],-10.4%
same,growth at 100 µM,[29],-51%
same,growth at 1 µM,[30],64%
O=C(Nc1cccc(-n2cc(-c3ccncc3)c(-c3cc(O)cc(Cl)c3)n2)c1)Nc1ccc(Cl)c(Cl)c1,GI50,[1]; read-out: GI50,1.92 µM
same,CC50,[1]; [31],7.9 µM
same,TGI,[1]; read-out: TGI,39 µM
same,GI50,[1]; read-out: pGI50 (converted),1.91 µM
same,CC50,[1]; [32],7.94 µM
same,TGI,[1]; read-out: pTGI (converted),3.89 µM
same,growth at 0.01 µM,[2],105%
same,growth at 0.01 µM,[3],102%
same,pIC50,[4],5.71
same,GI50,[4]; read-out: GI50,1.96 µM
same,CC50,[4]; [31],> 100 µM
same,TGI,[4]; read-out: TGI,50.5 µM
same,GI50,[4]; read-out: pGI50 (converted),1.95 µM
same,CC50,[4]; [32],> 100 µM
same,TGI,[4]; read-out: pTGI (converted),5.01 µM
same,growth at 0.1 µM,[5],87%
same,GI50,[6]; read-out: GI50,1.44 µM
same,CC50,[6]; [31],7.44 µM
same,TGI,[6]; read-out: TGI,32.8 µM
same,GI50,[6]; read-out: pGI50 (converted),1.45 µM
same,CC50,[6]; [32],7.41 µM
same,TGI,[6]; read-out: pTGI (converted),3.31 µM
same,growth at 1 µM,[7],83%
same,growth at 0.01 µM,[9],96%
same,growth at 0.1 µM,[10],110%
same,GI50,[11]; read-out: GI50,2.09 µM
same,CC50,[11]; [31],4.13 µM
same,TGI,[11]; read-out: TGI,90.6 µM
same,GI50,[11]; read-out: pGI50 (converted),2.09 µM
same,CC50,[11]; [32],41.7 µM
same,TGI,[11]; read-out: pTGI (converted),9.12 µM
same,growth at 0.1 µM,[12],94%
same,growth at 100 µM,[13],-10%
same,growth at 0.01 µM,[14],93%
same,GI50,[15]; read-out: GI50,1.1 µM
same,CC50,[15]; [31],5.99 µM
same,TGI,[15]; read-out: TGI,31.4 µM
same,GI50,[15]; read-out: pGI50 (converted),1.1 µM
same,CC50,[15]; [32],8.91 µM
same,TGI,[15]; read-out: pTGI (converted),3.16 µM
same,growth at 0.1 µM,[16],100%
same,GI50,[17]; read-out: GI50,1.3 µM
same,CC50,[17]; [31],9.1 µM
same,TGI,[17]; read-out: TGI,40.4 µM
same,GI50,[17]; read-out: pGI50 (converted),1.78 µM
same,CC50,[17]; [32],9.12 µM
same,TGI,[17]; read-out: pTGI (converted),4.07 µM
same,growth at 0.1 µM,[18],85%
same,growth at 100 µM,[19],-17%
same,growth at 100 µM,[20],-55%
same,growth at 1 µM,[21],97%
same,growth at 0.1 µM,[22],95%
same,growth at 1 µM,[23],72%
same,growth at 100 µM,[24],-70%
same,growth at 100 µM,[25],-45%
same,growth at 1 µM,[26],78%
same,growth at 0.1 µM,[27],90%
same,growth at 100 µM,[29],5%
same,growth at 1 µM,[30],90%
